Assay [1] has as its target purified human autoBACE-2 (Homo sapiens (Human), UniProt Q9Y5Z0). In words: BACE-2 Assay (BACE-HTRF assay). It is filed as biochemical. The following applies: Ki calculated from IC50 using the Cheng-Prusoff equation; QSY7-EISEVNLDAEFC-Eu-amide substrate, pH 5.0. As for the experimental part:
Inhibitor IC50s at purified human autoBACE-2 are determined in a time-resolved endpoint proteolysis assay that measures hydrolysis of the QSY7-EISEVNLDAEFC-Eu-amide FRET peptide substrate (BACE-HTRF assay). BACE-mediated hydrolysis of this peptide results in an increase in relative fluorescence (RFU) at 620 nm after excitation with 320 nm light. Inhibitor compounds, prepared at 3× the desired final concentration in 1×BACE assay buffer (20 mM sodium acetate pH 5.0, 10% glycerol, 0.1% Brij-35) supplemented with 7.5% DMSO are preincubated with an equal volume of autoBACE-2 enzyme diluted in 1×BACE assay buffer (final enzyme concentration 1 nM) in black 384-well NUNC plates for 30 minutes at 30° C. […] DMSO is present at 5% final concentration in the assay. Following laser excitation of sample wells at 320 nm, the fluorescence signal at 620 nm is collected for 400 ms following a […] on a RUBYstar HTRF plate reader (BMG Labtechnologies). Raw RFU data is normalized to maximum (1.0 nM BACE/DMSO) and minimum (no enzyme/DMSO) RFU values. IC50s are determined by nonlinear regression analysis (sigmoidal dose response, variable slope) of percent inhibition data with minimum and maximum values set to 0 and 100 percent respectively. Similar IC50s are obtained when using raw RFU data. The Ki values are calculated from the IC50 using the Cheng-Prusoff equation.

The target in assay [2] is soluble human BACE1 catalytic domain (Homo sapiens (Human), UniProt P56817). The experiment in a line: BACE1 HTRF FRET Assay. The class given is biochemical. The following applies: Ki calculated from IC50 using the Cheng-Prusoff equation; QSY7-APPswe-Eu substrate, pH 5.0; read-out: BACE-1 Ki. An excerpt:
• Reagents: Na^+-Acetate pH 5.0; 1% Brij-35; Glycerol; Dimethyl Sulfoxide (DMSO); Recombinant human soluble BACE1 catalytic domain (>95% pure); APP Swedish mutant peptide substrate (QSY7-APP^swe-Eu): QSY7-EISEVNLDAEFC-Europium-amide.
A homogeneous time-resolved FRET assay can be used to determine IC50 values for inhibitors of the soluble human BACE1 catalytic domain. This assay monitors the increase of 620 nm fluorescence that resulted from BACE1 cleavage of an APPswedish APP^swe mutant peptide FRET substrate (QSY7-EISEVNLDAEFC-Europium-amide). This substrate contains an N-terminal QSY7 moiety that serves as a quencher of the C-terminal Europium fluorophore (620 nm Em). In the absence of enzyme activity, 620 nm fluorescence is low in the assay and increased linearly over 3 hours in the presence of uninhibited BACE1 enzyme. Inhibition of BACE1 cleavage of the QSY7-APP^swe-Eu substrate by inhibitors is manifested as a suppression of 620 nm fluorescence.
Varying concentrations of inhibitors at 3× the final desired concentration in a volume of 10 ul are preincubated with purified human BACE1 catalytic domain (3 nM in 10 μl) for 30 minutes at 30° C. in reaction buffer containing 20 mM Na-Acetate pH 5.0, 10% glycerol, 0.1% Brij-35 and 7.5% DSMO. Reactions are initiated by addition of 10 μl of 600 nM QSY7-APP^swe-Eu substrate (200 nM final) to give a final reaction volume of 30 μl in a 384 well Nunc HTRF plate. The reactions are incubated at 30° C. for 1.5 hours. The 620 nm fluorescence is then read on a Rubystar HTRF plate reader (BMG Labtechnologies) using a 50 millisecond delay followed by a 400 millisecond acquisition time window. Inhibitor IC50 values are derived from non-linear regression analysis of concentration response curves. Ki values are then calculated from IC50 values using the Cheng-Prusoff equation using a previously determined m value of […] for the QSY7-APP^swe-Eu substrate at BACE1.

soluble human BACE1 catalytic domain, sequence (P56817 75-416): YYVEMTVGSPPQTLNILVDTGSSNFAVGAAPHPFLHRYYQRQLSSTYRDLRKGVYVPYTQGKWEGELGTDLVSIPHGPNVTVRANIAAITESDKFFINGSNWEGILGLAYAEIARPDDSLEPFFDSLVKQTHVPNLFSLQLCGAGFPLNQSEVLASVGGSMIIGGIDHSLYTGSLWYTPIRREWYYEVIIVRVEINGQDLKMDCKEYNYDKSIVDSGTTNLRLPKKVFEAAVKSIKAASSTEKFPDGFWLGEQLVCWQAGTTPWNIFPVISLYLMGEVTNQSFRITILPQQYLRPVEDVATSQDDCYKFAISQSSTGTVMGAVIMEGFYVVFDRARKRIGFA
purified human autoBACE-2, sequence (Q9Y5Z0 63-473): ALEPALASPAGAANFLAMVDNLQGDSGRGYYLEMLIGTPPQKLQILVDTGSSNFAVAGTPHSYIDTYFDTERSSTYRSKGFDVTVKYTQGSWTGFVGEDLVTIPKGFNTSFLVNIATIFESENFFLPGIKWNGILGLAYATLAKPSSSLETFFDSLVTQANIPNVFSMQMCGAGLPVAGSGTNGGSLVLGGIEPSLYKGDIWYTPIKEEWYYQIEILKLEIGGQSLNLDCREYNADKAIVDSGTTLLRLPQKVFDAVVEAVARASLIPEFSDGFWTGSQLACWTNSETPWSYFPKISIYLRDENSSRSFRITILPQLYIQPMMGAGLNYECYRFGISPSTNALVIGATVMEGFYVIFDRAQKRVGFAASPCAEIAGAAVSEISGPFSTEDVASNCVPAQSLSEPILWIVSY

The Ki is a dissociation constant, usually derived from enzyme kinetics or from competition with a known ligand. Turning to `C[C@H]1C[C@@H]2[C@](c3cc(Oc4ncccc4F)ccc3F)(CO1)NC(=N)N(C)S2(=O)=O` [Example 1, (4aS,7S,8aR)-4a-(2-fluoro-5-((3-fluoropyridin-2-yl)oxy)phenyl)-3-imino-2,7-dimethyloctahydropyrano[3,4-e][1,2,4]thiadiazine 1,1-dioxide], the Ki in assay [1] is 1.6 nM; in assay [2], 3.4 nM.
The corresponding values for `C[C@H]1C[C@@H]2[C@](c3cc(Oc4cc(C#N)ccn4)ccc3F)(CO1)NC(=N)N(C)S2(=O)=O` [Example 3, 2-(4-fluoro-3-((4aS,7S,8aR)-3-imino-2,7-dimethyl-1,1-dioxidooctahydropyrano[3,4-e][1,2,4]thiadiazin-4a-yl)phenoxy)isonicotinonitrile] are 2.3 nM and 2.7 nM.
Taken in the same sequence, the figures for `C[C@H]1C[C@@H]2[C@](c3cc(Oc4ncncc4F)ccc3F)(CO1)NC(=N)N(C)S2(=O)=O` [Example 4, (4aS,7S,8aR)-4a-(2-fluoro-5-((5-fluoropyrimidin-4-yl)oxy)phenyl)-3-imino-2,7-dimethyloctahydropyrano[3,4-e][1,2,4]thiadiazine 1,1-dioxide] were 5.9 nM and 12 nM.
`C[C@H]1C[C@@H]2[C@](c3cc(Oc4ncc(F)cc4F)ccc3F)(CO1)NC(=N)N(C)S2(=O)=O` [Example 5, (4aS,7S,8aR)-4a-(5-((3,5-difluoropyridin-2-yl)oxy)-2-fluorophenyl)-3-imino-2,7-dimethyloctahydropyrano[3,4-e][1,2,4]thiadiazine 1,1-dioxide]: the inhibition constant Ki is 13 nM in assay [1] and 25 nM in assay [2].
Regarding `C[C@H]1C[C@@H]2[C@](c3cc(Oc4cc(F)cnc4F)ccc3F)(CO1)NC(=N)N(C)S2(=O)=O` [Example 6, (4aS,7S,8aR)-4a-(5-((2,5-difluoropyridin-3-yl)oxy)-2-fluorophenyl)-3-imino-2,7-dimethyloctahydropyrano[3,4-e][1,2,4]thiadiazine 1,1-dioxide], the inhibition constant (Ki) in assay [1] is 15 nM; in assay [2] it was 7.1 nM.
Taken in the same sequence, the figures for `C[C@H]1C[C@@H]2[C@](c3cc(OCC4CC4)ccc3F)(CO1)NC(=N)N(C)S2(=O)=O` [Example 7, (4aS,7S,8aR)-4a-(5-(cyclopropylmethoxy)-2-fluorophenyl)-3-imino-2,7-dimethyloctahydropyrano[3,4-e][1,2,4]thiadiazine 1,1-dioxide] were 4.3 nM and 28 nM.
Taken in the same sequence, the figures for `C[C@H]1C[C@@H]2[C@](c3cc(OCC45CC(C#N)(C4)C5)ccc3F)(CO1)NC(=N)N(C)S2(=O)=O` [Example 8, 3-((4-fluoro-3-((4aS,7S,8aR)-3-imino-2,7-dimethyl-1,1-dioxidooctahydropyrano[3,4-e][1,2,4]thiadiazin-4a-yl)phenoxy)methyl)bicyclo[1.1.1]pentane-1-carbonitrile] were 28 nM and 9.1 nM.
The corresponding values for `COC[C@H]1C[C@@H]2[C@](c3cc(Oc4cncc(OC)n4)ccc3F)(CO1)NC(=N)N(C)S2(=O)=O` [Example 9, (4aS,7R,8aR)-4a-(2-fluoro-5-((6-methoxypyrazin-2-yl)oxy)phenyl)-3-imino-7-(methoxymethyl)-2-methyloctahydropyrano[3,4-e][1,2,4]thiadiazine 1,1-dioxide] are 9.4 nM and 4.6 nM.
As to `COC[C@H]1C[C@@H]2[C@](c3cc(Oc4cc(C#N)ccn4)ccc3F)(CO1)NC(=N)N(C)S2(=O)=O` [Example 10, 2-(4-fluoro-3-((4aS,7R,8aR)-3-imino-7-(methoxymethyl)-2-methyl-1,1-dioxidooctahydropyrano[3,4-e][1,2,4]thiadiazin-4a-yl)phenoxy)isonicotinonitrile], the figures for the Ki in assay [1] and in assay [2] were 3.4 nM and 1.9 nM, respectively.
Regarding `COC[C@H]1C[C@@H]2[C@](c3cc(Oc4ncncc4F)ccc3F)(CO1)NC(=N)N(C)S2(=O)=O` [Example 11, (4aS,7R,8aR)-4a-(2-fluoro-5-((5-fluoropyrimidin-4-yl)oxy)phenyl)-3-imino-7-(methoxymethyl)-2-methyloctahydropyrano[3,4-e][1,2,4]thiadiazine 1,1-dioxide], the Ki was 4.5 nM in assay [1] and 5.9 nM in assay [2].
Consider `COC[C@H]1C[C@@H]2[C@](c3cc(Oc4ncc(F)cc4F)ccc3F)(CO1)NC(=N)N(C)S2(=O)=O` [Example 12, (4aS,7R,8aR)-4a-(5-((3,5-difluoropyridin-2-yl)oxy)-2-fluorophenyl)-3-imino-7-(methoxymethyl)-2-methyloctahydropyrano[3,4-e][1,2,4]thiadiazine 1,1-dioxide], for which the Ki in assay [1] is 18 nM; in assay [2] it was 20 nM.
Turning to `COC[C@H]1C[C@@H]2[C@](c3cc(Oc4cc(F)cnc4F)ccc3F)(CO1)NC(=N)N(C)S2(=O)=O` [Example 13, (4aS,7R,8aR)-4a-(5-((2,5-difluoropyridin-3-yl)oxy)-2-fluorophenyl)-3-imino-7-(methoxymethyl)-2-methyloctahydropyrano[3,4-e][1,2,4]thiadiazine 1,1-dioxide], the Ki in assay [1] is 10 nM; in assay [2], 2.1 nM.
The corresponding values for `COC[C@H]1C[C@@H]2[C@](c3cc(OCC4CC4)ccc3F)(CO1)NC(=N)N(C)S2(=O)=O` [Example 14, (4aS,7R,8aR)-4a-(5-(cyclopropylmethoxy)-2-fluorophenyl)-3-imino-7-(methoxymethyl)-2-methyloctahydropyrano[3,4-e][1,2,4]thiadiazine 1,1-dioxide] are 2 nM and 7.9 nM.
The corresponding values for `COC[C@H]1C[C@@H]2[C@](c3cc(OCC45CC(C#N)(C4)C5)ccc3F)(CO1)NC(=N)N(C)S2(=O)=O` [Example 15, 3-((4-fluoro-3-((4aS,7R,8aR)-3-imino-7-(methoxymethyl)-2-methyl-1,1-dioxidooctahydropyrano[3,4-e][1,2,4]thiadiazin-4a-yl)phenoxy)methyl)bicyclo[1.1.1]pentane-1-carbonitrile] are 28 nM and 9.1 nM.
Regarding `COC[C@H]1C[C@@H]2[C@](c3cc(Oc4cccnc4)ccc3F)(CO1)NC(=N)N(C)S2(=O)=O` [Example 16, (4aS,7R,8aR)-4a-(2-fluoro-5-(pyridin-3-yloxy)phenyl)-3-imino-7-(methoxymethyl)-2-methyloctahydropyrano[3,4-e][1,2,4]thiadiazine 1,1-dioxide], the inhibitory constant (Ki) was 52 nM in assay [1] and 39 nM in assay [2].
In the case of `COC[C@H]1C[C@@H]2[C@](c3cc(Oc4cccc(C#N)c4)ccc3F)(CO1)NC(=N)N(C)S2(=O)=O` [Example 17, 3-(4-fluoro-3-((4aS,7R,8aR)-3-imino-7-(methoxymethyl)-2-methyl-1,1-dioxidooctahydropyrano[3,4-e][1,2,4]thiadiazin-4a-yl)phenoxy)benzonitrile], the inhibitory constant (Ki) in assay [1] is 6.9 nM; in assay [2], 4.3 nM.
Taken in the same sequence, the figures for `COC[C@H]1C[C@@H]2[C@](c3cc(Oc4cnccc4Cl)ccc3F)(CO1)NC(=N)N(C)S2(=O)=O` [Example 19, (4aS,7R,8aR)-4a-(5-((4-chloropyridin-3-yl)oxy)-2-fluorophenyl)-3-imino-7-(methoxymethyl)-2-methyloctahydropyrano[3,4-e][1,2,4]thiadiazine 1,1-dioxide] were 89 nM and 203 nM.
